Here are results for 23 compounds from ChEMBL document CHEMBL2375337, “Synthesis and anti-H5N1 activity of chiral gossypol derivatives and its analogs implicated by a viral entry blocking mechanism” (Bioorg Med Chem Lett, 2013).

SMILES strings stand for the structures. Where “and” joins values, the source holds several entries; their conditions need not be identical. Equal values may be shown once. Calls of active or inactive are those of the source. No cut-off for these calls is given here.

For data set [1], the system named is H5N1 subtype. Description: Antiviral activity against H5N1 subtype infected in MDCK cells. Format: functional, organism-based. To be noted: Influenza A virus.
Data set [2] is described as follows: Selectivity index, ratio of cytotoxicity against MDCK cells to antiviral activity against H5N1 subtype. The class given is toxicity, cell-based. The settings on record: dog, read-out: Selectivity Index.
The test system of data set [3] is Influenza A virus. The data set can be described thus: Antiviral activity against Influenza A virus (A/Vietnam/1194/2004(H5N1)) infected in MDCK cells by plaque reduction assay. The class given is functional, organism-based. For orientation: Plaques are areas of infected cells; plaque reduction assays count them against a control.
Data set [4] is described as follows: Selectivity index, ratio of CC50 for MDCK cells to IC50 for Influenza A virus (A/Vietnam/1194/2004(H5N1)). The class given is functional.
The nature of data set [5]: (§1) Cytotoxicity against MDCK cells by MTT assay. Format: cell-based, Canis lupus familiaris. The settings on record: dog, MDCK cells. On the technique in general: Tetrazolium assays rely on reduction of a dye to a coloured formazan, in cell work by metabolically active cells.
Data set [6] deals with H5N1 subtype. Description: Inhibition of H5N1 subtype hemagglutinin adsorption into chicken RBC at 100 ug/mL.
For data set [7], the system named is Influenza A virus. Description: Antiviral activity against Influenza A virus (A/Vietnam/1194/2004(H5N1)) infected in MDCK cells assessed as inhibition of viral entry at 20 uM treated 2 hrs post infection. Format: functional, organism-based.
The test system of data set [8] is Influenza A virus. The data set can be described thus: Antiviral activity against Influenza A virus (A/Vietnam/1194/2004(H5N1)) infected in MDCK cells assessed as inhibition of viral entry at 20 uM treated 2 hrs prior to infection. The class given is functional, organism-based.
The test system of data set [9] is MDCK. The description is as §1. Format: cell-based, Canis lupus familiaris. The settings on record: dog, mdck.
Data set [10] deals with H5N1 subtype. Description: Inhibition of H5N1 subtype neuraminidase up to 20 uM.
Data set [11] concerns Influenza A virus. The data set can be described thus: Antiviral activity against Influenza A virus (A/Vietnam/1194/2004(H5N1)) infected in MDCK cells assessed as inhibition of viral entry at 20 uM treated at the time of infection. The class given is functional, organism-based.
[12] abbreviates: Influenza A virus, MDCK, read-out: IC50.

In data set [1], `COc1c(OC)c(C=O)c2c(OC)c(-c3c(C)cc4c(C(C)C)c(OC)c(OC)c(C=O)c4c3OC)c(C)cc2c1C(C)C` had an IC50 of 103 µM. The selectivity ratio in data set [2] was above 0.54.
Regarding `CC(=O)Oc1c(OC(C)=O)c(C(=O)O)c2c(OC(C)=O)c(-c3c(C)cc4c(C(C)C)c(OC(C)=O)c(OC(C)=O)c(C(=O)O)c4c3OC(C)=O)c(C)cc2c1C(C)C`, the IC50 in data set [3] (setting [12]) is 3.46 µM; in [3] (mdck, read-out: IC50), 2.28 µM; in data set [1], 2.98 µM. In data set [4], the “Ratio CC50/IC50” value is 18.22 and 12.01. The compound further registered a CC50 in data set [5] of 41.5 µM. Besides, the selectivity ratio in data set [2] is above 8.7.
Consider `Cc1cc2c(c(O)c1-c1c(C)cc3c(c1O)/C(=C/N[C@@H]1[C@@H](O)[C@H](O)[C@@H](CO)O[C@H]1O)C(=O)C(O)=C3C(C)C)/C(=C/N[C@@H]1[C@@H](O)[C@H](O)[C@@H](CO)O[C@H]1O)C(=O)C(O)=C2C(C)C`, for which the IC50 result in data set [3] (mdck) is reported as “Not Active”. The compound also displayed a CC50 in data set [5] of 21.8 µM.
On to `COc1c(OC)c(C(=O)O)c2c(OC)c(-c3c(C)cc4c(C(C)C)c(OC)c(OC)c(C(=O)O)c4c3OC)c(C)cc2c1C(C)C`, for which the IC50 in data set [1] is 158 µM. In [2], the selectivity ratio is above 0.33.
`Cc1cc2c(C(C)C)c(O)c(O)c(C(=O)O)c2c(O)c1-c1c(C)cc2c(C(C)C)c(O)c(O)c(C(=O)O)c2c1O`: the IC50 in data set [3] (setting [12]) amounted to 3.83 µM; in data set [3] (mdck, read-out: IC50), 1.95 µM; in data set [1], 2.37 µM. Moreover, the inhibition entry in data set [6], in data set [7], in data set [8], in [10] and in data set [11] was “inactive” in each case. Also, in [4], the “Ratio CC50/IC50” value is 18.62 and 15.82. For the same compound, the CC50 worked out at 60.6 µM in data set [5] and 36.3 µM in data set [9]. Also, the selectivity ratio in data set [2] worked out at 10.5.
Turning to `Cc1cc2c(c(O)c1-c1c(C)cc3c(c1O)/C(=C/N[C@@H](C)C(=O)[O-])C(=O)C(O)=C3C(C)C)/C(=C/N[C@@H](C)C(=O)[O-])C(=O)C(O)=C2C(C)C.[Na+].[Na+]` (stereo in doubt; (+)-5b), the IC50 in data set [3] (mdck, read-out: IC50) is 0.47 µM. Further, the “Ratio CC50/IC50” value in [4] was found to be 100.72. In data set [9], half-maximal cytotoxicity (CC50) was put at 47.3 µM.
On to `Cc1cc2c(c(O)c1-c1c(C)cc3c(c1O)/C(=C/N[C@@H](C)C(=O)O)C(=O)C(O)=C3C(C)C)/C(=C/N[C@@H](C)C(=O)O)C(=O)C(O)=C2C(C)C` (stereo in doubt; (+)-5b), for which the inhibition result in [6], in data set [7], in [8], in data set [10] and in [11] was “inactive” throughout.
For the compound `Cc1cc2c(c(O)c1-c1c(C)cc3c(c1O)/C(=C/N[C@H](C(=O)[O-])C(C)C)C(=O)C(O)=C3C(C)C)/C(=C/N[C@H](C(=O)[O-])C(C)C)C(=O)C(O)=C2C(C)C.[Na+].[Na+]` (stereo in doubt; (+)-6b), the IC50 in [3] (mdck, read-out: IC50) turned out to be 1.27 µM. Moreover, in [4], the “Ratio CC50/IC50” value is 34.5. This compound had a CC50 in data set [9] of 43.8 µM.
In the same order, the values of `Cc1cc2c(c(O)c1-c1c(C)cc3c(c1O)/C(=C/N[C@@H](Cc1c[nH]c4ccccc14)C(=O)[O-])C(=O)C(O)=C3C(C)C)/C(=C/N[C@@H](Cc1c[nH]c3ccccc13)C(=O)[O-])C(=O)C(O)=C2C(C)C.[Na+].[Na+]` (stereo in doubt; (+)-7b) are 0.25 µM, 142.6 and 35.6 µM.
Turning to `CC[C@H](C)[C@H](N/C=C1\C(=O)C(O)=C(C(C)C)c2cc(C)c(-c3c(C)cc4c(c3O)/C(=C/N[C@H](C(=O)[O-])[C@@H](C)CC)C(=O)C(O)=C4C(C)C)c(O)c21)C(=O)[O-].[Na+].[Na+]` (stereo in doubt; (+)-8b), the concentration for half-maximal inhibition (IC50) in [3] (mdck, read-out: IC50) amounted to 0.32 µM. Besides, the “Ratio CC50/IC50” value in [4] amounted to 132.03. The compound also returned a CC50 in [9] of 42.2 µM.
For `Cc1cc2c(c(O)c1-c1c(C)cc3c(c1O)/C(=C/NC(C)(C)C(=O)[O-])C(=O)C(O)=C3C(C)C)/C(=C/NC(C)(C)C(=O)[O-])C(=O)C(O)=C2C(C)C.[Na+].[Na+]` (stereo in doubt; (+)-9b), the IC50 in [3] (mdck, read-out: IC50) turned out to be 0.89 µM. Also, the “Ratio CC50/IC50” value in data set [4] was 51.11. In data set [9], this compound showed a CC50 of 45.5 µM.
For `COC(=O)[C@H](C)N/C=C1\C(=O)C(O)=C(C(C)C)c2cc(C)c(-c3c(C)cc4c(c3O)/C(=C/N[C@@H](C)C(=O)OC)C(=O)C(O)=C4C(C)C)c(O)c21` (stereo in doubt; (+)-10b) the same measures were 0.95 µM, 50.94 and 48.4 µM.
With `COC(=O)[C@H](Cc1c[nH]c2ccccc12)N/C=C1\C(=O)C(O)=C(C(C)C)c2cc(C)c(-c3c(C)cc4c(c3O)/C(=C/N[C@@H](Cc3c[nH]c5ccccc35)C(=O)OC)C(=O)C(O)=C4C(C)C)c(O)c21` (stereo in doubt; (+)-11b), the IC50 in data set [3] (mdck, read-out: IC50) worked out at 1.6 µM. The “Ratio CC50/IC50” value in [4] was found to be 22.68. Further, in data set [9], the cytotoxic concentration (CC50) turned out to be 36.3 µM.
Regarding `Cc1cc2c(c(O)c1-c1c(C)cc3c(c1O)/C(=C/N[C@@H](C)C(=O)[O-])C(=O)C(O)=C3C(C)C)/C(=C/N[C@@H](C)C(=O)[O-])C(=O)C(O)=C2C(C)C.[Na+].[Na+]` (stereo in doubt; (-)-5a), the IC50 in data set [3] (mdck, read-out: IC50) was found to be 1.07 µM. Moreover, the “Ratio CC50/IC50” value in data set [4] is reported as above 44.24. The compound further registered a CC50 in [5] above 47.3 µM.
Take `Cc1cc2c(c(O)c1-c1c(C)cc3c(c1O)/C(=C/N[C@@H](C)C(=O)O)C(=O)C(O)=C3C(C)C)/C(=C/N[C@@H](C)C(=O)O)C(=O)C(O)=C2C(C)C` (stereo in doubt; (-)-5a): the inhibition entry in [6], in data set [7], in [8], in [10] and in data set [11] was “inactive” each time.
Regarding `Cc1cc2c(c(O)c1-c1c(C)cc3c(c1O)/C(=C/N[C@H](C(=O)[O-])C(C)C)C(=O)C(O)=C3C(C)C)/C(=C/N[C@H](C(=O)[O-])C(C)C)C(=O)C(O)=C2C(C)C.[Na+].[Na+]` (stereo in doubt; (-)-6a), the IC50 in [3] (mdck, read-out: IC50) came to 2.63 µM. Also, the “Ratio CC50/IC50” value in [4] is on record as above 16.66. For the same compound, the CC50 in [5] is above 43.8 µM.
For `Cc1cc2c(c(O)c1-c1c(C)cc3c(c1O)/C(=C/N[C@@H](Cc1c[nH]c4ccccc14)C(=O)[O-])C(=O)C(O)=C3C(C)C)/C(=C/N[C@@H](Cc1c[nH]c3ccccc13)C(=O)[O-])C(=O)C(O)=C2C(C)C.[Na+].[Na+]` (stereo in doubt; (-)-7a) the same measures were 0.53 µM, above 67.26 and above 35.6 µM.
`CC[C@H](C)[C@H](N/C=C1\C(=O)C(O)=C(C(C)C)c2cc(C)c(-c3c(C)cc4c(c3O)/C(=C/N[C@H](C(=O)[O-])[C@@H](C)CC)C(=O)C(O)=C4C(C)C)c(O)c21)C(=O)[O-].[Na+].[Na+]` (stereo in doubt; (-)-8a): the IC50 in [3] (mdck, read-out: IC50) was 0.72 µM. The “Ratio CC50/IC50” value in [4] is on record as above 58.68. The same compound showed a CC50 in [5] above 42.2 µM.
Regarding `Cc1cc2c(c(O)c1-c1c(C)cc3c(c1O)/C(=C/NC(C)(C)C(=O)[O-])C(=O)C(O)=C3C(C)C)/C(=C/NC(C)(C)C(=O)[O-])C(=O)C(O)=C2C(C)C.[Na+].[Na+]` (stereo in doubt; (-)-9a), the concentration for half-maximal inhibition (IC50) in data set [3] (setting [12]) was 1.58 µM. For the same compound, the “Ratio CC50/IC50” value in data set [4] is on record as 31.96. Further, half-maximal cytotoxicity in [5] (CC50) was put at 50.5 µM.
For `COC(=O)[C@H](C)N/C=C1\C(=O)C(O)=C(C(C)C)c2cc(C)c(-c3c(C)cc4c(c3O)/C(=C/N[C@@H](C)C(=O)OC)C(=O)C(O)=C4C(C)C)c(O)c21` (stereo in doubt; (-)-10a), the IC50 in data set [3] (mdck, read-out: IC50) was 1.92 µM. For the same compound, in [4], the “Ratio CC50/IC50” value is listed as above 25.2. In data set [5], this compound gave a CC50 above 48.4 µM.
In the same order, the values of `COC(=O)[C@H](Cc1c[nH]c2ccccc12)N/C=C1\C(=O)C(O)=C(C(C)C)c2cc(C)c(-c3c(C)cc4c(c3O)/C(=C/N[C@@H](Cc3c[nH]c5ccccc35)C(=O)OC)C(=O)C(O)=C4C(C)C)c(O)c21` (stereo in doubt; (-)-11a) are 3.37 µM, above 10.77 and above 36.3 µM.
For `NC12CC3CC(CC(C3)C1)C2` [AMANTADINE], the IC50 in [3] (setting [12]) and in [1] was 3.84 µM in each case. In addition, the “Ratio CC50/IC50” value in data set [4] was above 57.39. Besides, the CC50 in data set [5] was above 220 µM. The selectivity ratio in [2] is above 57.4.
As for `Cc1cc2c(C(C)C)c(O)c(O)c(C=O)c2c(O)c1-c1c(C)cc2c(C(C)C)c(O)c(O)c(C=O)c2c1O` [GOSSYPOL], the half-inhibitory concentration (IC50) is 3.82 µM and 1.87 µM in data set [3] (mdck, read-out: IC50); 2.14 µM in data set [1]. Besides, the inhibition entry in [6], in data set [7], in data set [8], in data set [10] and in data set [11] was “inactive” each time. This compound came in with a CC50 in data set [5] of 35.4 µM. Also, the selectivity ratio in [2] was found to be 1.65.

One may read the IC50 as the midpoint of a concentration-inhibition curve. A word on the CC50: it is the concentration giving 50% cytotoxicity. Low readings indicate greater toxicity to the cells, high ones lower toxicity to the cells.
